{"source": "patent US20220265629A1", "about": "“TREATMENT OF SYSTOLIC DYSFUNCTION AND HEART FAILURE WITH REDUCED EJECTION FRACTION WITH THE COMPOUND (R)-4-(1-((3-(DIFLUOROMETHYL)-1-METHYL-1H-PYRAZOL-4-YL)SULFONYL)-1-FLUOROETHYL)-N-(ISOXAZOL-3-YL)PIPERIDINE-1-CARBOXAMIDE” (MyoKardia, Inc., priority 2019, published 2022)", "format_in_all_cases": "in vivo, human", "key": {"healthy subjects": {"system": "healthy subjects", "assay": "Single ascending oral dose study in healthy volunteers: safety (AEs, ECG, hs-troponin I)", "method": "PK and PD data were collected as described herein. […] Changes from Baseline at each postbaseline timepoint were assessed.\nA 12-lead electrocardiogram (ECG) was obtained after the subjects had rested in a supine position for at least 10 minutes. […] Digital 12-lead ECG evaluations was performed after 10 minutes of rest at Screening, preclose on Day 1 (within 2 hours of dosing), and at various predetermined time points. Each time an ECG was completed, a 10-second paper ECG rhythm strip would also be obtained and maintained in the subject's source documentation.\nThe ECGs were transmitted to the core ECG laboratory who read the recordings in a blinded manner. An automated methodology was utilized with manual over-reading by a cardiologist. The following intervals were measured: RR, PR, QRS, and QT. Heart rate (HR) was calculated as 60/(RR×1000) (with RR expressed in msec) and rounded to the nearest integer.\nCorrected QT interval (QTc) was calculated using the manually over-read QT values per the standard procedures of the central ECG laboratory. Each individual ECG QT value was corrected for HR. The measured QT data were corrected for HR using the Fridericia correction QTcF and the Bazzett method (QTcB) as per the following formulae/method (with QT, RR and QTc expressed in msec): […]\nAny abnormal findings judged by the investigator to be clinically important were recorded as adverse events (AEs). AEs were mapped to system organ classes (SOCs) and preferred terms (PTs) using the Medical Dictionary for Regulatory Activities (MedDRA). AEs were monitored during the study and the data analyzed with respect to overall incidence, severity, and potential relationship to study medication. The blinded AEs were presented to the SRC for review after each cohort to aid in their decision on the dose of the subsequent cohort or if the study should be terminated. […] No ECG changes or symptoms were noted.\nFor the final analysis, the AEs were grouped by treatment group with all of the subjects who received placebo pooled as 1 group. AEs with onset on or after the first dose of study medication, or with an onset before the first dose of study medication that increased in severity on or after the first dose of study medication. Treatment-emergent AEs (defined as AEs starting […]) were summarized for the Safety Analysis Population by MedDRA SOC and PT, and by severity and relationship to treatment. Severe and life-threatening AEs, SAEs, and AEs leading to study withdrawal, if any, were presented in data listings.\nSerum samples were drawn for hs-troponin I. Analyses were performed using the Abbott Architect STAT High Sensitivity Troponin I assay."}, "[1]": {"assay": "Single ascending oral dose study in healthy volunteers: urinary excretion and renal clearance", "conditions": "for CL renal: human, plasma and urine", "method": "The concentrations of Compound I in human plasma and urine were quantitated by high performance liquid chromatography with tandem mass spectrometric detection (LC MS/MS) (Biological sample analysis study report Alturas AD17-726). Plasma samples were extracted by protein precipitation with acetonitrile containing internal standard MYK-5654. The calibration curves were linear over concentration range of 0.500 to 1000 ng/mL with a lower limit of quantification (LLOQ) of 0.500 ng/mL.\nThe PK Population included all subjects who received Compound I. Blood samples were collected for PK assessments. The actual timing of the samples may have been modified and/or up to an additional 2 samples may have been requested by the SRC after review of the data from previous cohorts. It was important that PK sampling occurred as closely as possible to the scheduled time (±10%). Both blood and urine samples were used for PK assessments."}, "[2]": {"system": "patients with stable HFrEF", "assay": "HFrEF study Part 1 (SAD Cohorts 1 and 2): safety (TEAEs, troponin, ECG, Holter)", "method": "Safety and efficacy assessments were conducted by measuring patients' vital signs and laboratory parameters; performing TTE to measure, e.g., systolic ejection time; performing electrocardiograms (e.g., 12-lead ECG), real-time ECG telemetry (e.g., at least 3-lead), and Holter ECG; and measuring levels of troponin (e.g., troponin I and/or troponin T) and […].\nThe following safety laboratory parameters were measured: (1) hematology parameters (CBC, including differential count, and platelet count); (2) serum chemistry parameters (e.g., sodium, potassium, chloride, bicarbonate, calcium, magnesium, urea, creatinine, ALP, ALT, AST, total bilirubin, glucose, and CPK); and (3) urinalysis parameters (e.g., pH, protein, glucose, leukocyte esterase, and blood).\nAbnormal and/or rising troponin values (as per investigator's judgment and taking into account potential baseline troponin elevation frequently observed in heart failure) led to the patient being clinically evaluated for possible myocardial ischemia. […] The entire clinical context (e.g., signs, symptoms, new ECG changes, new troponin, and CK-MB abnormalities) was evaluated and correlated with any other relevant clinical findings, patient's medical history, and laboratory data to determine the clinical significance of the findings. Troponin results performed on Day 2 of Part 1 (SAD) and Day 10 of Part 2 (MAD) at a local lab were reviewed prior to the patient being discharged the next day."}}, "note": "Like-named read-outs stand apart in the source and are kept apart here.", "data": [{"smiles": "Cn1cc(S(=O)(=O)[C@@](C)(F)C2CCN(C(=O)Nc3ccon3)CC2)c(C(F)F)n1", "note": "[Compound I, (R)-4-(1-((3-(difluoromethyl)-1-methyl-1H-pyrazol-4-yl)sulfonyl)-1-fluoroethyl)-N-(isoxazol-3-yl)piperidine-1-carboxamide]", "values": [{"measurement": "AEs considered related to treatment", "setting": "healthy subjects; 50 mg dose group (50.0%)", "result": 3, "unit": "subjects"}, {"measurement": "serious AE", "setting": "healthy subjects; 100 mg dose group", "result": "short duration of complete AV block"}, {"measurement": "AEs considered related to treatment", "setting": "healthy subjects; 350 mg dose group (50.0%)", "result": 3, "unit": "subjects"}, {"measurement": "hs-troponin I concentration in one subject", "setting": "healthy subjects; 525 mg group, 6 hours postdose, upper limit of normal 15 ng/L", "result": 16, "unit": "ng/L"}, {"measurement": "ECG or ECG intervals including PR interval", "setting": "healthy subjects; 3-525 mg", "result": "no significant changes"}, {"measurement": "vital sign or safety laboratory parameters", "setting": "healthy subjects; 3-525 mg", "result": "no clinically significant changes"}, {"measurement": "tolerability", "setting": "healthy subjects; single doses up to 525 mg", "result": "well-tolerated"}, {"measurement": "hs-troponin I, mild increase in one subject", "setting": "healthy subjects; upper range of normal 15 ng/L", "result": 16, "unit": "ng/L"}, {"measurement": "dose recovered in 0-48 hours urine", "setting": "[1]; 350 mg", "result": "approximately 6.0%"}, {"measurement": "dose recovered in 0-48 hours urine", "setting": "[1]; 525 mg", "result": "~8.6", "unit": "%"}, {"measurement": "CL renal", "setting": "[1]; oral, all doses, read-out: renal clearance, mean (converted)", "result": 9.5, "unit": "mL/min"}, {"measurement": "CL renal", "setting": "[1]; po, 350 mg, 350 mg dose group, read-out: renal clearance, mean (SD) (converted)", "result": 5.55, "unit": "mL/min"}, {"measurement": "CL renal", "setting": "[1]; po, 525 mg, 525 mg dose group, read-out: renal clearance, mean (SD) (converted)", "result": 13.3, "unit": "mL/min"}, {"measurement": "CL renal", "setting": "[1]; po, all doses, read-out: renal clearance, individuals range", "result": "2.95 to 23.3", "unit": "mL/min"}, {"measurement": "CL renal", "setting": "[1]; po, all doses, read-out: renal clearance, mean (converted)", "result": "~9.5", "unit": "mL/min"}, {"measurement": "TEAE Any SOC, any PT, %", "setting": "[2]; 175 mg (n = 8)", "result": "(25.0) %"}, {"measurement": "TEAE Dyspnea, %", "setting": "[2]; 175 mg (n = 8)", "result": "(12.5) %"}, {"measurement": "TEAE Fatigue, %", "setting": "[2]; 175 mg (n = 8)", "result": "(12.5) %"}, {"measurement": "TEAE Infusion site discomfort, %", "setting": "[2]; 175 mg (n = 8)", "result": "(12.5) %"}, {"measurement": "TEAE Urinary tract infection, %", "setting": "[2]; 175 mg (n = 8)", "result": "(12.5) %"}, {"measurement": "TEAE Any SOC, any PT, %", "setting": "[2]; 350 mg (n = 8)", "result": "(62.5) %"}, {"measurement": "TEAE Bursitis, %", "setting": "[2]; 350 mg (n = 8)", "result": "(12.5) %"}, {"measurement": "TEAE Diarrhoea, %", "setting": "[2]; 350 mg (n = 8)", "result": "(12.5) %"}, {"measurement": "TEAE Hypomagnesemia, %", "setting": "[2]; 350 mg (n = 8)", "result": "(12.5) %"}, {"measurement": "TEAE Oral contusion, %", "setting": "[2]; 350 mg (n = 8)", "result": "(12.5) %"}, {"measurement": "TEAE Proteinuria, %", "setting": "[2]; 350 mg (n = 8)", "result": "(12.5) %"}, {"measurement": "TEAE Anemia, %", "setting": "[2]; 400 mg Split Dose (n = 4)", "result": "(25.0) %"}, {"measurement": "TEAE Any SOC, any PT, %", "setting": "[2]; 400 mg Split Dose (n = 4)", "result": "(75.0) %"}, {"measurement": "TEAE Neck pain, %", "setting": "[2]; 400 mg Split Dose (n = 4)", "result": "(25.0) %"}, {"measurement": "TEAE Orthostatic hypotension, %", "setting": "[2]; 400 mg Split Dose (n = 4)", "result": "(25.0) %"}, {"measurement": "TEAE Ventricular extrasystoles, %", "setting": "[2]; 400 mg Split Dose (n = 4)", "result": "(25.0) %"}, {"measurement": "TEAE Any SOC, any PT, %", "setting": "[2]; 550 mg Split Dose (n = 2)", "result": "(50.0) %"}, {"measurement": "TEAE Cardiac discomfort, %", "setting": "[2]; 550 mg Split Dose (n = 2)", "result": 50.0, "unit": "%"}, {"measurement": "TEAE Dyspnea, %", "setting": "[2]; 550 mg Split Dose (n = 2)", "result": "(50.0) %"}, {"measurement": "TEAE Troponin increase, %", "setting": "[2]; 550 mg Split Dose (n = 2)", "result": "(50.0) %"}, {"measurement": "maximum troponin I level (one subject)", "setting": "[2]; 550 mg, 24 hours post-dose, 4×ULN", "result": 0.12, "unit": "ng/mL"}, {"measurement": "TEAE Anemia, %", "setting": "[2]; Total Active (n = 12)", "result": "(8.3) %"}, {"measurement": "TEAE Any SOC, any PT, %", "setting": "[2]; Total Active (n = 12)", "result": "(83.3) %"}, {"measurement": "TEAE Bursitis, %", "setting": "[2]; Total Active (n = 12)", "result": "(8.3) %"}, {"measurement": "TEAE Cardiac discomfort, %", "setting": "[2]; Total Active (n = 12)", "result": "(8.3) %"}, {"measurement": "TEAE Diarrhoea, %", "setting": "[2]; Total Active (n = 12)", "result": "(8.3) %"}, {"measurement": "TEAE Diverticulitis, %", "setting": "[2]; Total Active (n = 12)", "result": "(8.3)- %"}, {"measurement": "TEAE Dyspnea, %", "setting": "[2]; Total Active (n = 12)", "result": "(8.3) %"}, {"measurement": "TEAE Fatigue, %", "setting": "[2]; Total Active (n = 12)", "result": "(8.3) %"}, {"measurement": "TEAE Hypomagnesemia, %", "setting": "[2]; Total Active (n = 12)", "result": "(8.3) %"}, {"measurement": "TEAE Infusion site discomfort, %", "setting": "[2]; Total Active (n = 12)", "result": "(8.3) %"}, {"measurement": "TEAE Neck pain, %", "setting": "[2]; Total Active (n = 12)", "result": "(8.3) %"}, {"measurement": "TEAE Oral contusion, %", "setting": "[2]; Total Active (n = 12)", "result": "(8.3) %"}, {"measurement": "TEAE Orthostatic hypotension, %", "setting": "[2]; Total Active (n = 12)", "result": "(8.3) %"}, {"measurement": "TEAE Proteinuria, %", "setting": "[2]; Total Active (n = 12)", "result": "(8.3) %"}, {"measurement": "TEAE Troponin increase, %", "setting": "[2]; Total Active (n = 12)", "result": "(8.3) %"}, {"measurement": "TEAE Urinary tract infection, %", "setting": "[2]; Total Active (n = 12)", "result": "(8.3) %"}, {"measurement": "TEAE Ventricular extrasystoles, %", "setting": "[2]; Total Active (n = 12)", "result": "(8.3) %"}, {"measurement": "QTcF (study ECGs)", "setting": "[2]; all patients", "result": "no signal for QTcF increase"}, {"measurement": "Holter monitoring: atrial ectopy, atrial fibrillation, ventricular ectopy, NSVT runs", "setting": "[2]; compared to placebo", "result": "no signal"}, {"measurement": "active-treatment periods with transient troponin increase (3/30)", "setting": "[2]; doses from 175 to 550 mg", "result": 10, "unit": "%"}, {"measurement": "subjects with transient troponin increase (3/12)", "setting": "[2]; doses from 175 to 550 mg", "result": 25, "unit": "%"}, {"measurement": "safety and tolerability", "setting": "[2]; single-ascending doses 175 to 550 mg", "result": "safe and generally well-tolerated"}]}]}
